# According to patent US20040071650A1, “Use of cyclosporin 7-thioamide derivatives for hair growth” (priority 2000, published 2004):
# Entries after “also recorded” stand apart in the source; their conditions may differ.
# How the values were obtained:
# C57BL/6 mice (female) = experiment: Test of hair regrowth effects of 7-thioamide derivatives of cyclosporin on shaved backs of mice; conditions: for hair regrowth effect (in words): hair regrowth evaluation of synthesized thioamide derivatives; for Area ratio (ratio of the area where hairs newly grew to the hair removed area): C57BL/6 female mice, 100 μl (0.1% w/v) applied on hair removed back once a day for 30 days, vehicle 32
# Experimental: C57BL/6 mice (female), 42˜49 days old, were used in this test.
# First of all, mice were removed of hair on their backs using an electric shaver, and weighed. The mice were divided into several groups with weights equally distributed. After one day of adaptation, cyclosporin A and cyclosporin derivatives were applied over the hair removed area once a day per each individual for 30 days. Here, the applied amount of cyclosporin A and derivatives thereof was 100 μl (0.1% w/v). The degree of hair growth were observed by naked eye. The ratio of the area where hairs newly grew to the hair removed area were determined.
# mouse's back = conditions: comparative experiments on mouse's back; cited from earlier work
Substance,hair regrowth effect (in words) (C57BL/6 mice (female)),hair regrowth effect relative to minoxidil (mouse's back),Area ratio (ratio of the area where hairs newly grew to the hair removed area) (C57BL/6 mice (female)) [%]
"Cyclosporin A 4-thioamide [cyclosporin 4-thioamide, reference compound]","not all of those derivatives have hair regrowth effect, but only cyclosporin 7-thioamide",–,–
Cyclosporin A [reference compound],–,about 100 times,87
Cyclosporin B 7-thioamide ([Ala]^2-[^7ψ^8 CS—NH] cyclosporin),–,–,81
Cyclosporin A 7-thioamide ([^7ψ^8 CS—NH] cyclosporin A) [cyclosporin 7-thioamide],does have the hair regrowth effect; also recorded: superior hair regrowth (restoring) effect to any other compounds,–,–
Cyclosporin G 7-thioamide ([Nva]^2-[^7ψ^8 CS—NH] cyclosporin),–,–,88
Cyclosporin C 7-thioamide ([Thr]^2-[^7ψ^8 CS—NH] cyclosporin),–,–,87
Cyclosporin D 7-thioamide ([Val]^2-[^7ψ^8 CS—NH] cyclosporin),–,–,79
"Cyclosporin A 4,7-bis(thioamide) [cyclosporin 4,7-bis(tioamide), reference compound]","not all of those derivatives have hair regrowth effect, but only cyclosporin 7-thioamide",–,–
